{"source": "patent US20110212100A1", "about": "“METHODS FOR MODULATING DEVELOPMENT AND EXPANSION OF IL-17 EXPRESSING CELLS” (priority 2007, published 2011)", "key": {"STAT3 phosphorylation": {"system": "STAT3 phosphorylation", "test": "Kinetics of STAT3 phosphorylation in developing Th17 cells", "type": "cell-based, mouse", "protocol": "FIG. 11A is a series of graphs depicting representative histograms displaying the kinetics of STAT3 phosphorylation in developing Th17 cells treated with or without HF. Resting naïve T cells (shaded peak), T cells activated in the presence of TGFβ plus IL-6 (TGFβ/IL-6) treated with 10 nM MAZ1310, TGFβ/IL-6-activated T cells treated with 5 nM HF, TGFβ/IL-6-activated T cells treated with 10 nM HF. T cells were fixed at the indicated times and intracellular phospho-STAT3 staining was performed.\nFACS analyses and sorting: All cell surface staining was performed in FACS buffer (PBS/2% FCS/0.1% NaN3) and antibodies were incubated with cells on ice for 20-30 minutes. Cells were washed with FACS buffer and fixed with FACS buffer plus 1% paraformaldehyde prior to data acquisition. For phospho-STAT3 intracellular staining, stimulated T cells cultured with or without TGF plus IL-6 for the indicated times were harvested on ice and fixed in PBS plus 2% paraformaldehyde for 10 minutes at 37° C. Fixed cells were washed twice with staining buffer (PBS/1% BSA/0.1% NaN3) and then permeabilized with perm buffer III (BD Pharmingen) on ice for 30 minutes. […] All FACS data was acquired on a FACSCalibur flow cytometer (BD Pharmingen) and analyzed using FlowJo software (Treestar, Inc., Ashland, Oreg.). […]"}, "RORγt": {"system": "RORγt", "test": "RORγt expression during Th17 differentiation (real-time PCR)", "type": "cell-based, mouse", "conditions": "10 nM HF", "protocol": "T cells were harvested at the indicated times following activation, RNA was isolated and quantitative real-time PCR was performed using RORγt-specific primers and taqman probe. RORγt expression was normalized to Gapdh levels, and the data are presented as fold changes relative to naïve T cells.\nQuantitative real-time PCR: T cells were activated as described above, collected at the indicated times and pellets were flash-frozen in liquid nitrogen. Total RNA was obtained by RNeasy (Quiagen, Valencia, Calif.) column purification per manufacturers instructions. RORγt expression was determined after reverse transcription using the message sensor kit (Ambion, Austin, Tex.) per manufacturers instructions and taqman primers and probe as described elsewhere (I. Ivanov, et al., Cell 126, 1121, 2006). Sybrgreen quantitative real-time PCR was performed on T cell RNA samples following reverse transcription via SuperScript II first-strand cDNA synthesis kit (Invitrogen, Carlsbad, Calif.). All PCR data was collected on an iCycler thermal cycler (Biorad, Hercules, Calif.). Primer sequences used for detecting stress response genes are listed below."}, "[1]": {"system": "Th17 differentiation of CD4+ CD25− T cells", "test": "Th17 differentiation (IL-17+ IFNγ− cells) of T cells activated with TGFβ plus IL-6", "type": "cell-based", "conditions": "Mus musculus, T-cell, 96 h; murine CD4+ CD25− T cells, restimulation on day 4-5; ± 0.4 nM; read-out: IC50 of repression of Th17 differentiation (percentage of IL-17+ IFNγ− cells)"}, "[2]": {"system": "anti-CD3 activated human peripheral blood T cells", "conditions": "cited from earlier work"}}}
{"compound": "O=C(CC1NCCCC1O)Cn1cnc2cc(Br)c(Cl)cc2c1=O", "note": "(racemic) [HF, 7-bromo-6-chloro-3-[3-(3-hydroxy-2-piperidinyl)-2-oxopropyl]-4(3H)-quinazolinone]", "values": [{"measurement": "time post activation at which maintenance of STAT3 phosphorylation begins to decrease", "setting": "STAT3 phosphorylation; 5 or 10 nM HF, TGFβ plus IL-6", "result": "around 12 hours"}, {"measurement": "effect on early STAT3 activation, in words", "setting": "STAT3 phosphorylation; first 6 hours of Th17 differentiation", "result": "did not interfere with STAT3 activation during the first 6 hours"}, {"measurement": "effect on upregulation of RORγt or RORγ during Th17 differentiation, in words", "setting": "RORγt", "result": "did not interfere with the upregulation of RORγt or RORγ"}, {"measurement": "IC50", "setting": "[1]", "result": 3.6, "unit": "nM"}, {"measurement": "NFkB activation and T-cell secretion of cytokines, in words", "setting": "[2]; 80 nM HF, crude preparation of primary T-cells (Leiba et al.)", "result": "broadly suppress NFkB activation and T-cell secretion of cytokines"}, {"measurement": "IC50", "setting": "[2]; Lieba et al., read-out: concentration for 50% inhibition of cytokine secretion, NF-kB activation and p38 phosphorylation", "result": "20 to 40", "unit": "nM"}]}
